One assay deals with T1, Gal-T1(Y289A) (Bos taurus, UniProt P08037, I205M/L206V/P187L/V158I/Y289A).
T1 construct: host or cells: CHO K1
T1 sequence (P08037 74-402 V158I/P187L/I205M/L206V/Y289A): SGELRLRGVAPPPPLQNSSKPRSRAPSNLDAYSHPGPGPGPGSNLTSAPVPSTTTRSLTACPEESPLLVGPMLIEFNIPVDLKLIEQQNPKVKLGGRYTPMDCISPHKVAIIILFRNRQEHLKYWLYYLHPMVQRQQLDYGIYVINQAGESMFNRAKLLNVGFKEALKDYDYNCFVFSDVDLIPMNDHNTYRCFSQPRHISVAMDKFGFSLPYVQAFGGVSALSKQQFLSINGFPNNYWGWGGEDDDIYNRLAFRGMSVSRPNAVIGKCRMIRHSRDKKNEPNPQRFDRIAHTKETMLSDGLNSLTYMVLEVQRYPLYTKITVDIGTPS
Briefly: Glycosyltransfer to trimmed trastuzumab with Gal-T1(Y289A) expressed in CHO. The format is biochemical, bovine. The note with it: trimmed trastuzumab 10 mg/mL; UDP derivative 5 mM; enzyme 0.5 mg/mL; pH 8.0, 30° C. overnight. An excerpt:
A set of Gal-T 1 mutants encoding residues 74-402 of bovine Gal-T 1 were transiently expressed in CHO K1 cells by Evitria (Zurich, Switzerland) which include the Gal-T1 single mutants Y289L (represented by SEQ ID NO: 26), Y289F (represented by SEQ ID NO: 27), Y289M (represented by SEQ ID NO: 28), Y289V (represented by SEQ ID NO: 29), Y289A (represented by SEQ ID NO: 30), and Y289G (represented by SEQ ID NO: 31), and the Gal-T1 double mutants Y289L,C342T (represented by SEQ ID NO: 32), and Y289M,C342T (represented by SEQ ID NO: 33). The mutants were purified using a cation exchange column (Source 15S HR16/10 column, GE Healthcare) as described above. Purified proteins were analyzed by SDS-PAGE.
Trimmed trastuzumab (10 mg/mL, […] obtained by Endo S treatment of trastuzumab, was incubated with the 4-azido-3,5-difluorobenzoyl derivative of UDP-galactosamine (23, 5 mM) and one of the Gal-T1 single mutants Y289L, Y289M, Y289A or Y289G (expressed in CHO as described above) (0.5 mg/mL) in 10 mM MnCl2 and 25 mM Tris-HCl pH 8.0 at 30° C. overnight. Mass spectral analysis of the reduced sample indicated a partial conversion of the core GlcNac(Fuc)-substituted trastuzumab heavy chain (49504 Da) into product 30 (49818 to 49825 Da, 20 to 50% of total heavy chain depending on the Gal-T1 mutant used), resulting from transfer of 23 to core GlcNAc(Fuc)-substituted trastuzumab heavy chain. […]

The target of a further assay is T2, β(1,4)-Gal-T1(Y289L) (Bos taurus, UniProt P08037, I205M/L206V/P187L/V158I/Y289L).
T2 construct: made in house; host or cells: E. coli
T2 sequence (P08037 1-402 V158I/P187L/I205M/L206V/Y289L): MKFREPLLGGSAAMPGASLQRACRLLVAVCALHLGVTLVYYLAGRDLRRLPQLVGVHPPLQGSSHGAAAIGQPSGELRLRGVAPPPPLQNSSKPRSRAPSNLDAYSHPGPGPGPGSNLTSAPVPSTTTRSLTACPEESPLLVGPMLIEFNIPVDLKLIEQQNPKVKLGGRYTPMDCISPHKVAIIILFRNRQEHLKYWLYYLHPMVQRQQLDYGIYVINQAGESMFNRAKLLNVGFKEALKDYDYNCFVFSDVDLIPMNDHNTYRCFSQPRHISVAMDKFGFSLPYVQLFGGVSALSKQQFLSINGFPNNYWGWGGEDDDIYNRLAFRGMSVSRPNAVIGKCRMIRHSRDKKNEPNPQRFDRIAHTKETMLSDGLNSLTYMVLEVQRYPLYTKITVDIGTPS
The assay is described as follows: Glycosyltransfer of UDP-galactosamine derivatives to trimmed trastuzumab with Gal-T1(Y289L) expressed in E. coli, mass spectral analysis. The format is biochemical, bovine. The note with it: trimmed trastuzumab 10 mg/mL; UDP derivative 7 mM; enzyme 2 mg/mL; pH 8.0, 30° C. overnight; reduced sample. As to the method: General Protocol for Glycosyltransfer of Galactose Derivative UDP-GalNAz 21-24 with Gal-T1(Y289L) (Expressed in E. coli).
Enzymatic introduction of UDP-Gal derivatives 21-24 onto deglycosylated trastuzumab was effected with a mutant of bovine β(1,4)-galactosyltransferase [β(1,4)-Gal-T1(Y289L)] (expressed in E. coli). The deglycosylated trastuzumab (10 mg/mL) was incubated with the appropriate UDP-galactose derivative (0.4 mM) and β(1,4)-Gal-T1(Y289L) (1 mg/mL) in 10 mM MnCl2 and 25 mM Tris-HCl pH 8.0 for 16 hours at 30° C.
Next, the functionalized trastuzumab was incubated with protein A agarose (40 μL per mg IgG) for 2 hours at 4° C. The protein A agarose was washed three times with PBS and the IgG was eluted with 100 mM glycine-HCl pH 2.7. The eluted IgG was neutralized with 1 M Tris-HCl pH 8.0 and concentrated and washed with PBS using an Amicon Ultra-0.5, Ultracel-10 Membrane (Millipore) to a concentration of 15-20 mg/mL.
Trimmed trastuzumab (10 mg/mL, 3.3 nmol), obtained by Endo S treatment of trastuzumab, was incubated with UDP-galactosamine variant 21 (2.5 mM) and β(1,4)-Gal-T1(Y289L) (0.68 mg/mL, 45 μL) in 10 mM MnCl2 and 25 mM Tris-HCl pH 8.0 at 30° C. overnight.
Trimmed trastuzumab (10 mg/mL, 1.3 nmol), obtained by Endo S treatment of trastuzumab, was incubated with UDP-galactosamine variant 22 (4 mM) and β(1,4)-Gal-T1(Y289L) (1.4 mg/mL, 10 μL) in 10 mM MnCl2 and 25 mM Tris-HCl pH 8.0 at 30° C. overnight. Mass spectral analysis of the reduced sample indicated the formation of the product (49750.9 Da, approximately 80% of total heavy chain), resulting from galactosamide furan-2-carboxyl acid transfer to core GlcNAc(Fuc) substituted trastuzumab heavy chain as shown in FIG. 9.
Trimmed trastuzumab (10 mg/mL, 6.6 nmol), obtained by Endo S treatment of trastuzumab, was incubated with the 4-azido-3,5-difluorobenzoyl derivative of UDP-galactosamine (23, 7 mM) and β(1,4)-Gal-T1(Y289L) (2 mg/mL) in 10 mM MnCl2 and 25 mM Tris-HCl pH 8.0 at 30° C. overnight. Mass spectral analysis of the reduced sample indicated the formation of a one major product (49813 Da, approximately 90% of total heavy chain), resulting from transfer of 23 to core GlcNAc(Fuc)-substituted trastuzumab heavy chain.
Trimmed trastuzumab (10 mg/mL, 1.3 nmol), obtained by Endo S treatment of trastuzumab, was incubated with UDP-galactosamine variant 24 (4 mM) and (3(1,4)-Gal-T1(Y289L) (1.4 mg/mL, 10 μL) in 10 mM MnCl2 and 25 mM Tris-HCl pH 8.0 at 30° C. overnight.

For the compound `[N-]=[N+]=Nc1c(F)cc(C(=O)N[C@H]2[C@@H](OP(=O)(O)OP(=O)(O)OC[C@H]3O[C@@H](n4ccc(=O)[nH]c4=O)[C@H](O)[C@@H]3O)O[C@H](CO)[C@H](O)[C@@H]2O)cc1F` [Compound 23, 4-azido-3,5-difluorobenzoyl Derivative of UDP-GalNH2], the observed conversion result on Gal-T1(Y289A) was “approximately 20%”. At β(1,4)-Gal-T1(Y289L), the “product, % of total heavy chain” value is listed as “approximately 90%”.

The values are drawn from patent publication US20170009266A1, “PROCESS FOR THE ATTACHMENT OF A GALNAC MOIETY COMPRISING A (HETERO)ARYL GROUP TO A GLCNAC MOIETY, AND PRODUCT OBTAINED THEREBY” (SYNAFFIX B.V., priority 2014, published 2017).
